We go through 9 compounds from ChEMBL document CHEMBL1128237, “6-(4-pyridinyl)-1H-1,2,3-triazolo[4,5-d]-pyrimidin-4(5H)-one: a structurally novel competitive AMPA receptor antagonist” (J Med Chem, 1995).

Each structure is given as a SMILES string. Bounds are passed on as bounds.

Broadly, the inhibition is how much of the control response was suppressed. Lower therefore signals a response near the control. Broadly, the pA2 is the negative logarithm of the molar antagonist concentration that doubles the agonist concentration needed for the same response. The low end stands for lower antagonist potency, the high end for higher antagonist potency. By IC50 is commonly meant the midpoint of a concentration-inhibition curve. A higher IC50 goes with weaker potency.

Assay [1] is described as follows: Inhibition of [3H]-kainic acid binding to kainate receptor at a concentration of 10 uM.
Assay [2] can be described thus: Ability to antagonize kainate-induced responses in frog oocyte. The assay is classed as functional.
The nature of assay [3]: Ability to antagonize AMPA-induced responses in frog oocytes. The assay is classed as functional, cell-based. The note with it: oocyte.
A short description of assay [4]: Inhibition of [3H]-CGS 19755 binding to NMDA receptor at a concentration of 10 uM.
For assay [5], the target named is T1, Glutamate receptor ionotropic AMPA (Homo sapiens, UniProt P42261+P42262+P42263+P48058). The assay is described as follows: (§1) Inhibition of Ionotropic glutamate receptor AMPA binding to human hippocampal homogenates at concentration of 5-7 uM. The assay is classed as tissue-based, Hippocampus.
The target of assay [6] is Glutamate receptor ionotropic AMPA (Homo sapiens) (UniProt P48058+P42263+P42262+P42261). The description is as §1. The assay is classed as tissue-based. The note with it: Hippocampus.
Assay [7] addresses T1, Glutamate receptor ionotropic AMPA. The assay is described as follows: Inhibition of Ionotropic glutamate receptor AMPA binding to human hippocampal homogenates. The assay is classed as tissue-based, Hippocampus.

Regarding `Oc1[nH]c(-c2ccncc2)nc2nnnc1-2`, the figures for the inhibition at 10 µM in assay [1] and in assay [4] were 37% and 17%, respectively. Besides, the pA2 in assay [2] worked out at 6.2; in assay [3], 6.08. The half-inhibitory concentration (IC50) in assay [5] was 1800 nM.
Turning to `Oc1nc(-c2ccncc2)nc2c(C3CCCC3)n[nH]c12`, the inhibition in assay [6] is below 5%.
`O=c1[nH]c2cc([N+](=O)[O-])c([N+](=O)[O-])cc2[nH]c1=O` [DNQX] returned an IC50 in assay [5] of 280 nM.
In the case of `Oc1[nH]c(-c2ccncc2)nc2ncnc1-2`, the IC50 in assay [7] came to 1900 nM.
On to `Oc1nc(-c2ccncc2)nc2c1ncn2C1CCCC1`, for which the values for the inhibition at 10 µM in assay [1] and in assay [4] were 15% and 25%, respectively. The same compound came in with an IC50 in assay [7] of 2100 nM.
In assay [6], `Cc1nc(O)c2c[nH]nc2n1` gave an inhibition below 5%.
As to `Nc1[nH]c(-c2ccncc2)nc2ncnc1-2`, the inhibition in assay [6] was below 5%.
The same measure, in the same setting: the figure for `O=c1[nH]c(-c2ccncc2)nc2c1cnn2C1CCCC1` is below 5%.
On the same count and under the same terms, under `Nc1[nH]c(-c2ccncc2)nc2nnnc1-2` stands below 5%.
